Results on six compounds are retold here after patent publication US20240116985A1, “STAPLED PEPTIDES AND METHODS THEREOF” (priority 2020, published 2024).

A short description of the data set: CHI Log D procedure. It is filed as physicochemical. The settings on record: for CHI Log D: pH 7.4; for chromatographic logD: pH 7.4, CHI Log D.

As for `CC(=O)N[C@@H](Cc1ccccc1)C(=O)N[C@@H](CC(=O)O)C(=O)N[C@@H](C)C(=O)N[C@]1(C)CCCCCCC=CCOC(=O)N2CC[C@@](C(=O)N[C@@H](Cc3ccccc3)C(=O)N[C@@H](Cc3c[nH]c4ccccc34)C(=O)N[C@@H](CCC(N)=O)C(N)=O)(C2)NC(=O)[C@H](C(C)C)NC(=O)[C@H](Cc2ccccc2)NC(=O)[C@H](C)NC(=O)[C@H](C)NC(=O)[C@H](CCC(N)=O)NC(=O)[C@H](CC(=O)O)NC1=O` [I-59, Ac-Phe-Asp-Ala-R8-Asp-Gln-Ala-Ala-Phe-Val-PyrS-Phe-Trp-Gln-NH2], the “CHI Log D” value came out at 1.531.
On the same count and under the same terms, for `CCCC[C@@H]1NC(=O)[C@H](CC(=O)O)NC(=O)[C@](C)(NC(=O)[C@@H](NC(=O)[C@H](CC(=O)O)NC(=O)[C@H](C)NC(C)=O)[C@@H](C)CC)CCN(C)C(=O)OCC=CCCCCC[C@@](C)(C(=O)N[C@@H](Cc2ccccc2)C(=O)N[C@@H](Cc2c[nH]c3ccccc23)C(=O)N[C@@H](Cc2c[nH]cn2)C(N)=O)NC(=O)[C@H](CCC(N)=O)NC(=O)[C@H](Cc2ccccc2)NC(=O)[C@H](C)NC(=O)[C@H](C)NC1=O` [I-68, Ac-Ala-Asp-Ile-RdN-Asp-nLeu-Ala-Ala-Phe-Gln-S7-Phe-Trp-His-NH2] the value was 1.553.
The compound `CCCC[C@@H]1NC(=O)[C@H](C)NC(=O)[C@H](C)NC(=O)[C@H](CC(=O)O)NC(=O)[C@H](CC(=O)O)NC(=O)[C@](C)(NC(=O)[C@H](C)NC(=O)[C@H](CC(=O)O)NC(=O)[C@H](Cc2ccccc2)NC(C)=O)CCCCCCC=CCOC(=O)N2CC[C@@](C(=O)N[C@@H](Cc3ccccc3)C(=O)N[C@@H](Cc3c[nH]c4ccccc34)C(=O)N[C@@H](CCC(N)=O)C(N)=O)(C2)NC(=O)[C@H](C(C)C)NC1=O` [I-76, Ac-Phe-Asp-Ala-R8-Asp-Asp-Ala-Ala-nLeu-Val-PyrS-Phe-Trp-Gln-NH2] yielded a chromatographic logD of 1.2.
Compound `CC(=O)N[C@@H](Cc1ccccc1)C(=O)N[C@@H](CC(=O)O)C(=O)N[C@@H](C)C(=O)N[C@]1(C)CCCCCCC=CCOC(=O)N2CC[C@@](C(=O)N[C@@H](Cc3ccccc3)C(=O)N[C@@H](Cc3c[nH]c4ccccc34)C(=O)N[C@@H](CCC(N)=O)C(N)=O)(C2)NC(=O)[C@H](C(C)C)NC(=O)[C@H](Cc2cccc(F)c2)NC(=O)[C@H](C)NC(=O)[C@H](C)NC(=O)[C@H](CC(=O)O)NC(=O)[C@H](CC(=O)O)NC1=O` [I-77, Ac-Phe-Asp-Ala-R8-Asp-Asp-Ala-Ala-3FF-Val-PyrS-Phe-Trp-Gln-NH2] showed a chromatographic logD of 1.28.
The same measure, in the same setting: the value for `CC(=O)N[C@@H](Cc1ccccc1)C(=O)N[C@@H](CC(=O)O)C(=O)N[C@@H](C)C(=O)N[C@]1(C)CCCCCCC=CCOC(=O)N2CC[C@@](C(=O)N[C@@H](Cc3ccccc3)C(=O)N[C@@H](Cc3c[nH]c4ccccc34)C(=O)N[C@@H](CCC(N)=O)C(N)=O)(C2)NC(=O)[C@H](C(C)C)NC(=O)[C@H](Cc2ccccn2)NC(=O)[C@H](C)NC(=O)[C@H](C)NC(=O)[C@H](CC(=O)O)NC(=O)[C@H](CC(=O)O)NC1=O` [I-86, Ac-Phe-Asp-Ala-R8-Asp-Asp-Ala-Ala-2PyrA-Val-PyrS-Phe-Trp-Gln-NH2] was 1.24.
Regarding `CC(=O)N[C@@H](Cc1ccccc1)C(=O)N[C@@H](CC(=O)O)C(=O)N[C@@H](C)C(=O)N[C@]1(C)CCCCCCC=CCOC(=O)N2CC[C@@](C(=O)N[C@@H](Cc3ccccc3)C(=O)N[C@@H](Cc3c[nH]c4ccccc34)C(=O)N[C@@H](CCC(N)=O)C(N)=O)(C2)NC(=O)[C@H](C(C)C)NC(=O)[C@H](Cc2ccc(C(N)=O)cc2)NC(=O)[C@H](C)NC(=O)[C@H](C)NC(=O)[C@H](CC(=O)O)NC(=O)[C@H](CC(=O)O)NC1=O` [I-92, Ac-Phe-Asp-Ala-R8-Asp-Asp-Ala-Ala-4CBMF-Val-PyrS-Phe-Trp-Gln-NH2], the “CHI Log D” value was found to be 1.199.
